In ChEMBL document CHEMBL3751769, “Design, synthesis, and evaluation of semi-conservative mono-carbonyl analogs of curcumin as anti-inflammatory agents against lipopolysaccharide-induced acute lung injury” (Medchemcomm, 2015):
Calls of active or inactive are those of the source. No cut-off for these calls is given here.

How the values were obtained:
RAW264.7 [1] = test: Anti-inflammatory activity in mouse RAW264.7 cells assessed as inhibition of IL-6 production at 10 uM preincubated for 30 mins followed by 0.5 ug/ml LPS addition after 24 hrs by ELISA; assay type: functional
RAW264.7 [2] = test: Anti-inflammatory activity in mouse RAW264.7 cells assessed as inhibition of TNFalpha production at 10 uM preincubated for 30 mins followed by 0.5 ug/ml LPS addition after 24 hrs by ELISA; assay type: functional
[3] = Cytotoxicity against human HL-7702 cells assessed as cell viability at 10 uM after 24 hrs by MTT assay; assay type: cell-based; details: l02, 24 h
RAW264.7 [4] = test: Anti-inflammatory activity in mouse RAW264.7 cells assessed as inhibition of IL-6 production preincubated for 30 mins followed by 0.5 ug/ml LPS addition after 24 hrs by ELISA; assay type: functional, cell-based
RAW264.7 [5] = test: Anti-inflammatory activity in mouse RAW264.7 cells assessed as inhibition of TNFalpha production preincubated for 30 mins followed by 0.5 ug/ml LPS addition after 24 hrs by ELISA; assay type: functional, cell-based
Rattus norvegicus [6] = test: Anti-inflammatory activity in Sprague-Dawley rat assessed as decrease in LPS- induced elevation of BALF protein concentration at 20 mg/kg/day, po for 7 days pre-treated before LPS challenge and measured 6 hrs after LPS challenge; assay type: functional, organism-based
Rattus norvegicus [7] = test: Anti-inflammatory activity in Sprague-Dawley rat assessed as reduction in LPS-induced histopathological changes at 20 mg/kg/day, po for 7 days pre-treated before LPS challenge and measured 6 hrs after LPS challenge by light microscopic analysis; assay type: functional, organism-based
Rattus norvegicus [8] = test: Anti-inflammatory activity in Sprague-Dawley rat assessed as decrease in LPS- induced number of neutrophils in BALF at 20 mg/kg/day, po for 7 days pre-treated before LPS challenge and measured 6 hrs after LPS challenge by Wright-Giemsa staining method; assay type: functional, organism-based
Rattus norvegicus [9] = test: Anti-inflammatory activity in Sprague-Dawley rat assessed as decrease in LPS- induced amount of TNFalpha in BALF at 20 mg/kg/day, po for 7 days pre-treated before LPS challenge and measured 6 hrs after LPS challenge by ELISA; assay type: functional, organism-based
Rattus norvegicus [10] = test: Anti-inflammatory activity in Sprague-Dawley rat assessed as decrease in LPS- induced wet/dry ratio of lung tissue at 20 mg/kg/day, po for 7 days pre-treated before LPS challenge and measured 6 hrs after LPS challenge; assay type: functional, organism-based
Rattus norvegicus [11] = test: Anti-inflammatory activity in Sprague-Dawley rat assessed as decrease in LPS-induced IL1beta mRNA expression at 20 mg/kg/day, po for 7 days pre-treated before LPS challenge by real-time qPCR analysis; assay type: functional
Rattus norvegicus [12] = test: Anti-inflammatory activity in Sprague-Dawley rat assessed as decrease in LPS-induced TNFalpha mRNA expression at 20 mg/kg/day, po for 7 days pre-treated before LPS challenge by real-time qPCR analysis; assay type: functional
BEAS-2B [13] = test: Anti-inflammatory activity in human BEAS2B cells assessed as inhibition of LPS-induced TNFalpha mRNA expression by real-time qPCR analysis; assay type: functional; set-up: scale not given: the % may be the effect or the level left
BEAS-2B [14] = test: Anti-inflammatory activity in human BEAS2B cells assessed as inhibition of LPS-induced IL6 mRNA expression by real-time qPCR analysis; assay type: functional; set-up: scale not given: the % may be the effect or the level left
BEAS-2B [15] = test: Anti-inflammatory activity in human BEAS2B cells assessed as inhibition of LPS-induced IL1beta mRNA expression by real-time qPCR analysis; assay type: functional; set-up: scale not given: the % may be the effect or the level left
BEAS-2B [16] = test: Anti-inflammatory activity in human BEAS2B cells assessed as inhibition of LPS-induced COX2 mRNA expression by real-time qPCR analysis; assay type: functional; set-up: scale not given: the % may be the effect or the level left
Rattus norvegicus [17] = test: Anti-inflammatory activity in Sprague-Dawley rat assessed as decrease in LPS-induced IL6 mRNA expression at 20 mg/kg/day, po for 7 days pre-treated before LPS challenge by real-time qPCR analysis; assay type: functional
Rattus norvegicus [18] = test: Anti-inflammatory activity in Sprague-Dawley rat assessed as decrease in LPS-induced COX2 mRNA expression at 20 mg/kg/day, po for 7 days pre-treated before LPS challenge by real-time qPCR analysis; assay type: functional
Rattus norvegicus [19] = test: Anti-inflammatory activity in Sprague-Dawley rat assessed as decrease in LPS-induced ICAM1 mRNA expression at 20 mg/kg/day, po for 7 days pre-treated before LPS challenge by real-time qPCR analysis; assay type: functional
Rattus norvegicus [20] = test: Anti-inflammatory activity in Sprague-Dawley rat assessed as decrease in LPS-induced VCAM1 mRNA expression at 20 mg/kg/day, po for 7 days pre-treated before LPS challenge by real-time qPCR analysis; assay type: functional

COc1cc(/C=C2\CC/C(=C\c3c[nH]c4ncccc34)C2=O)ccc1O
inhibition (RAW264.7 [1]): Active
inhibition (RAW264.7 [2]): Active
Activity [3]: Non-toxic

COc1ccc(/C=C2\CCC/C(=C\c3ccc(O)c(OC)c3)C2=O)cc1
inhibition (RAW264.7 [1]): Active
inhibition (RAW264.7 [2]): Active
Activity [3]: Non-toxic

COc1cc(/C=C2\CCC/C(=C\c3ccccc3F)C2=O)ccc1O
inhibition (RAW264.7 [1]): Active
inhibition (RAW264.7 [2]): Active
Activity [3]: Non-toxic

COc1ccc(/C=C2\CC/C(=C\c3ccc(O)c(OC)c3)C2=O)c(F)c1
inhibition (RAW264.7 [1]): Active
inhibition (RAW264.7 [2]): Active
Activity [3]: Non-toxic

COc1cc(/C=C2\CCC/C(=C\c3c(F)cccc3F)C2=O)ccc1O
inhibition (RAW264.7 [1]): Active
inhibition (RAW264.7 [2]): Active
Activity [3]: Non-toxic

COc1cc(/C=C2\CCC/C(=C\c3cc4c(cc3Br)OCO4)C2=O)ccc1O
inhibition (RAW264.7 [1]): Active
inhibition (RAW264.7 [2]): Active
Activity [3]: Non-toxic

COc1cc(/C=C2\CCC/C(=C\c3ccc(Cl)cc3)C2=O)ccc1O
inhibition (RAW264.7 [1]): Active
inhibition (RAW264.7 [2]): Active
Activity [3]: Non-toxic

COc1cc(/C=C2\CCC/C(=C\c3cccc(F)c3)C2=O)ccc1O
inhibition (RAW264.7 [1]): Active
inhibition (RAW264.7 [2]): Active
Activity [3]: Non-toxic

COc1cc(/C=C2\CC/C(=C\c3cc4c(cc3Br)OCO4)C2=O)ccc1O
inhibition (RAW264.7 [1]): Active
inhibition (RAW264.7 [2]): Active
Activity [3]: Non-toxic

COc1cc(/C=C2\CC/C(=C\c3cc(C)ccc3C)C2=O)ccc1O
inhibition (INH) (RAW264.7 [1]): >50%
inhibition (INH) (RAW264.7 [2]): >50%
Activity [3]: Non-toxic
inhibition (RAW264.7 [4]): Dose-dependent effect
inhibition (RAW264.7 [5]): Dose-dependent effect

COc1cc(/C=C2\CCC/C(=C\c3ccc(F)c(F)c3)C2=O)ccc1O
inhibition (RAW264.7 [1]): Active
inhibition (RAW264.7 [2]): Active
Activity [3]: Non-toxic

COc1cc(/C=C2\CCC/C(=C\c3ccccc3Br)C2=O)ccc1O
inhibition (RAW264.7 [1]): Active
inhibition (RAW264.7 [2]): Active
Activity [3]: Non-toxic

COc1cc(/C=C2\CC/C(=C\c3cc4ccccc4[nH]3)C2=O)ccc1O
inhibition (INH) (RAW264.7 [1]): >50%
inhibition (INH) (RAW264.7 [2]): >50%
Activity [3]: Non-toxic

COc1cc(/C=C2\CCC/C(=C\c3ccc(Cl)c([N+](=O)[O-])c3)C2=O)ccc1O
inhibition (RAW264.7 [1]): Active
inhibition (RAW264.7 [2]): Active
Activity [3]: Non-toxic

COc1cc(/C=C2\CCC/C(=C\c3ccc(OC)c(OC)c3)C2=O)ccc1O
inhibition (RAW264.7 [1]): Active
inhibition (RAW264.7 [2]): Active
Activity [3]: Non-toxic

COc1cc(/C=C2\CCC/C(=C\c3ccccc3OC)C2=O)ccc1O
inhibition (RAW264.7 [1]): Active
inhibition (RAW264.7 [2]): Active
Activity [3]: Non-toxic

COc1ccc(/C=C2\CCC/C(=C\c3ccc(O)c(OC)c3)C2=O)cc1O
inhibition (INH) (RAW264.7 [1]): >50%
inhibition (INH) (RAW264.7 [2]): >50%
Activity [3]: Non-toxic
inhibition (RAW264.7 [4]): Dose-dependent effect
inhibition (RAW264.7 [5]): Dose-dependent effect

COc1cc(/C=C2\CCC/C(=C\c3cccc(Cl)c3Cl)C2=O)ccc1O
inhibition (RAW264.7 [1]): Active
inhibition (RAW264.7 [2]): Active
Activity [3]: Non-toxic

COc1cc(/C=C2\CCC/C(=C\c3cccc(OC)c3OC)C2=O)ccc1O
inhibition (RAW264.7 [1]): Active
inhibition (RAW264.7 [2]): Active
Activity [3]: Non-toxic

COc1cc(/C=C2\CCC/C(=C\c3ccc(O)cc3)C2=O)ccc1O
inhibition (RAW264.7 [1]): Active
inhibition (RAW264.7 [2]): Active
Activity [3]: Non-toxic

COc1ccc(OC)c(/C=C2\CCC/C(=C\c3ccc(O)c(OC)c3)C2=O)c1
inhibition (RAW264.7 [1]): Active
inhibition (RAW264.7 [2]): Active
Activity [3]: Non-toxic

COc1cc(/C=C2\CCC/C(=C\c3ccccc3C(F)(F)F)C2=O)ccc1O
inhibition (RAW264.7 [1]): Active
inhibition (RAW264.7 [2]): Active
Activity [3]: Non-toxic

COc1cc(/C=C2\CCC/C(=C\c3ccc(O)c(Br)c3)C2=O)ccc1O
inhibition (INH) (RAW264.7 [1]): >50%
inhibition (INH) (RAW264.7 [2]): >50%
Activity [3]: Non-toxic
inhibition (RAW264.7 [4]): Dose-dependent effect
inhibition (RAW264.7 [5]): Dose-dependent effect

COc1cc(/C=C2\CCC/C(=C\c3c(C)cc(C)cc3C)C2=O)ccc1O
inhibition (RAW264.7 [1]): Active
inhibition (RAW264.7 [2]): Active
Activity [3]: Non-toxic

COc1cc(/C=C2\CCC/C(=C\c3cccc(OC)c3O)C2=O)ccc1O
inhibition (RAW264.7 [1]): Active
inhibition (RAW264.7 [2]): Active
Activity [3]: Non-toxic

COc1cc(/C=C2\CCC/C(=C\c3ccc(Cl)cc3Cl)C2=O)ccc1O
inhibition (RAW264.7 [1]): Active
inhibition (RAW264.7 [2]): Active
Activity [3]: Non-toxic

COc1cc(/C=C2\CCC/C(=C\c3cc(Br)c(O)c(Br)c3)C2=O)ccc1O
inhibition (RAW264.7 [1]): Active
inhibition (RAW264.7 [2]): Active
Activity [3]: Non-toxic

COc1cc(/C=C2\CCC/C(=C\c3ccc(O)c(O)c3)C2=O)ccc1O
inhibition (RAW264.7 [1]): Active
inhibition (RAW264.7 [2]): Active
Activity [3]: Non-toxic

COc1cc(/C=C2\CCC/C(=C\c3ccc(Cl)c(Cl)c3)C2=O)ccc1O
inhibition (RAW264.7 [1]): Active
inhibition (RAW264.7 [2]): Active
Activity [3]: Non-toxic

COc1cc(/C=C2\CCC/C(=C\c3ccc(F)c(Br)c3)C2=O)ccc1O
inhibition (RAW264.7 [1]): Active
inhibition (RAW264.7 [2]): Active
Activity [3]: Non-toxic

COc1cc(/C=C2\CCC/C(=C\c3cc(OC)c(OC)c(OC)c3)C2=O)ccc1O
inhibition (RAW264.7 [1]): Active
inhibition (RAW264.7 [2]): Active
Activity [3]: Non-toxic

COc1cc(/C=C2\CC/C(=C\c3c[nH]c4ccc(Br)cc34)C2=O)ccc1O
inhibition (INH) (RAW264.7 [1]): >50%
inhibition (INH) (RAW264.7 [2]): >50%
Activity [3]: Non-toxic
inhibition (RAW264.7 [4]): Dose-dependent effect
inhibition (RAW264.7 [5]): Dose-dependent effect
Activity (Rattus norvegicus [6]): Active
Activity (Rattus norvegicus [7]): Active
Activity (Rattus norvegicus [8]): Active
Activity (Rattus norvegicus [9]): Active
Activity (Rattus norvegicus [10]): Active
inhibition in vivo at 20 mg/kg/day (Rattus norvegicus [11]): 39.2%
inhibition in vivo at 20 mg/kg/day (Rattus norvegicus [12]): 38.4%
Activity (BEAS-2B [13]): 64.5%
Activity (BEAS-2B [14]): 30%
Activity (BEAS-2B [15]): 55.6%
Activity (BEAS-2B [16]): 64.9%
inhibition in vivo at 20 mg/kg/day (Rattus norvegicus [17]): 92.9%
inhibition in vivo at 20 mg/kg/day (Rattus norvegicus [18]): 77.3%
inhibition in vivo at 20 mg/kg/day (Rattus norvegicus [19]): 74.1%
inhibition in vivo at 20 mg/kg/day (Rattus norvegicus [20]): 52.9%

COc1cc(/C=C2\CCC/C(=C\c3cc(F)ccc3F)C2=O)ccc1O
inhibition (RAW264.7 [1]): Active
inhibition (RAW264.7 [2]): Active
Activity [3]: Non-toxic

COc1cc(/C=C2\CC/C(=C\c3ccc4ccccc4c3)C2=O)ccc1O
inhibition (RAW264.7 [1]): Active
inhibition (RAW264.7 [2]): Active
Activity [3]: Non-toxic

COc1cc(/C=C2\CCC/C(=C\c3ccc4ccccc4c3)C2=O)ccc1O
inhibition (RAW264.7 [1]): Active
inhibition (RAW264.7 [2]): Active
Activity [3]: Non-toxic

CCOc1ccc(Br)cc1/C=C1\CCC/C(=C\c2ccc(O)c(OC)c2)C1=O
inhibition (RAW264.7 [1]): Active
inhibition (RAW264.7 [2]): Active
Activity [3]: Non-toxic

COc1ccc(/C=C2\CCC/C(=C\c3ccc(O)c(OC)c3)C2=O)c(OC)c1
inhibition (RAW264.7 [1]): Active
inhibition (RAW264.7 [2]): Active
Activity [3]: Non-toxic
